From EP4775582A1, “MACROCYCLIC COMPOUND AND ANTIBODY-DRUG CONJUGATE THEREOF” (Genfleet Therapeutics (Shanghai) Inc., priority 2023, dated 2025) come the findings set out here.

As a reminder, the IC50 is the concentration that inhibits the measured activity by half.

Type in all cases: cell-based, human
One assay relates to NCI-H441 cells. Nature of the assay: 3D cell proliferation assay (CellTiter Glo-3D), NCI-H441. The note with it: Homo sapiens, 120 h, NCI-H441 cells (KRAS G12V), 2% FBS, 5 days, read-out: H441 AP IC50. As to the method:
(§1) The cells were digested with trypsin (containing EDTA), collected in their respective low-serum complete media containing 2% FBS (for MIA Paca-2 cell culture: DMEM + 2% FBS + 0.5% Horse serum + 1% PS), and counted. After the cell density was adjusted as required, 200 MIA PaCa-2 cells, 800 AsPC-1 cells, 800 NCI-H441 cells, or 400 NCI-H1975 cells per well were seeded into a 384-well cell culture plate, with the volume of the medium in each well being 45 µL. The cell culture plate was incubated in an incubator at 37 °C with 5% CO2 overnight. […] On the day after cell seeding, 5 µL of the 10× compound stock solution was added to each cell culture well. […] In addition to the compound-treated wells described above, cell-containing DMSO control wells (with 5 µL of the complete medium containing 1% DMSO added to each well) and cell-free medium control wells (containing 50 µL of the complete medium with 2% FBS) were also set. The culture plate was incubated in an incubator at 37 °C with 5% CO2 for another 5 days, and then 30 µL of CellTiter-Glo working solution was added to each well. The mixture was well mixed, incubated for 30 min, left to stand at room temperature for 30 min, and then transferred to a white-bottomed, opaque 384-well assay plate at 40 µL/well. […] Using an XLfit software, the IR (%) values were plotted against the logarithm of the compound concentrations, and the dose-response curves were fitted using the four-parameter method to calculate the IC50 values.
On the technique in general: In ATP-based viability assays light output follows the ATP content of the culture.

The subject of the next assay is AsPC-1 cells. Nature of the assay: 3D cell proliferation assay (CellTiter Glo-3D), AsPC-1. The note with it: Homo sapiens, ASPC1, 120 h, read-out: AsPC-1 AP IC50(nM). Here is the method:
as §1

The next assay concerns H441 p-ERK. As to the kind of experiment: Cell p-ERK assay (HTRF), NCI-H441 cells. The note with it: NCI-H441 cells (KRAS G12V), 3 h incubation. Here is the method: (§2) The cells were digested with trypsin (containing EDTA), collected in their corresponding complete media, and counted. The density of the cell suspensions was adjusted with their corresponding complete media, and 10000 AsPC-1 cells or 20000 NCI-H441 cells per well were seeded into a 96-well cell culture plate, with the volume of the medium in each well being 80 µL. The cell culture plate was incubated in an incubator at 37 °C with 5% CO2 overnight. […] On the day after cell seeding, 20 µL of the 5× compound stock solution was added to each cell culture well. […] In addition to the compound-treated wells described above, cell-containing DMSO control wells were also set. A complete medium containing 0.5% DMSO was added at 20 µL/well. After the mixture was well mixed, the culture plate was incubated in the incubator at 37 °C with 5% CO2 for another 3 h. The medium was then removed from the culture wells, and 50 µL of cell lysis buffer (from Advance ERK phospho-T202/Y204 kit) was added to each well. The mixture was well mixed and incubated for 30 min. Then, 16 µL of the mixture was transferred to a white-bottomed, opaque 96-well assay plate, and separately, 16 µL of cell lysis buffer was added to additional wells (serving as blank wells) in the assay plate. After the transfer was completed, 4 µL of p-ERK HTRF antibody mixture (from Advance ERK phospho-T202/Y204 kit) was added to each well of the assay plate, followed by a 4-hour incubation. […] Using an XLfit software, the IR (%) values were plotted against the logarithm of the compound concentrations, and the dose-response curves were fitted using the four-parameter method to calculate the IC50 values.
Background: In TR-FRET formats the signal depends on donor and acceptor labels being close together.

The next assay concerns AsPC-1 p-ERK. As to the kind of experiment: Cell p-ERK assay (HTRF), AsPC-1 cells. The settings on record: Homo sapiens, ASPC1, 3 h, read-out: AsPC-1 p-ERK IC50(nM). Here is the method:
as §2

For the compound `CCn1c(-c2cc(C#CCN3CCC(N)(C#N)CC3)cnc2[C@H](C)OC)c2c3cc(ccc31)-c1csc(n1)C[C@H](NC(=O)[C@H]1[C@@H]3COC[C@@H]31)C(=O)N1CCC[C@H](N1)C(=O)OCC(C)(C)C2` (atropisomer, axis not shown; (Ra)) [Compound Z51, (1R,5S,6r)-N-((6^3S,4S,Z)-(Ra)-1^2-(5-(3-(4-amino-4-cyanopiperidin-1-yl)prop-1-yn-1-yl)-2-((S)-1-methoxyethyl)-pyridin-3-yl)-1^1-ethyl-10,10-dimethyl-5,7-dioxo-6^1,6^2,6^3,6^4,6^5,6^6-hexahydro-11H-8-oxa-2(4,2)-thiazola-1(5,3)-indola-6(1,3)-pyridazinacycloundecaphane-4-yl)-3-oxabicyclo[3.1.0]hexane-6-carboxamide], the IC50 was 0.28 nM in the assay on NCI-H441 cells, 0.42 nM in the assay on AsPC-1 cells, 0.18 nM in the assay on H441 p-ERK (Homo sapiens) and 0.27 nM in the assay with AsPC-1 p-ERK.

For the compound `CCn1c(-c2cc(C#CCN3CCS(=O)(=O)CC3)cnc2[C@H](C)OC)c2c3cc(ccc31)-c1cc(N)cc(c1)C[C@H](NC(=O)C(C(C)C)N(C)C(=O)[C@@H]1CN(C(=O)OC)C[C@@H]1C)C(=O)N1CCC[C@H](N1)C(=O)OCC(C)(C)C2` (atropisomer, axis not shown; (Ra)) [Compound Z62], in the assay with H441 p-ERK, inhibition was half-maximal at 3.19 nM (IC50). Regarding `CCn1c(-c2cc(C#CCN3CCCOCC3)cnc2[C@H](C)OC)c2c3cc(ccc31)-c1csc(n1)C[C@H](NC1=NOC(C)(C(C)C)C1)C(=O)N1CCC[C@H](N1)C(=O)OCC(C)(C)C2` (atropisomer, axis not shown; (Ra)) [Compound Z280, (6^3S,4S,Z)-(Ra)-1^2-(5-(3-(1,4-oxazepan-4-yl)prop-1-yn-1-yl)-2-((S)-1-methoxyethyl)pyridin-3-yl)-1^1-ethyl-10,10-dimethyl-4-((5-isopropyl-5-methyl-4,5-dihydroisoxazol-3-yl)amino)-6^1,6^2,6^3,6^4,6^5,6^6-hexahydro-1^1H-8-oxa-2(4,2)-thiazola-1(5,3)-indola-6(1,3)-pyridazinacycloundecaphane-5,7-dione], the IC50 in the assay on H441 p-ERK (Homo sapiens) was found to be 1.43 nM. Regarding `CCn1c(-c2cc(C#CCN3CCCOCC3)cnc2[C@H](C)OC)c2c3cc(ccc31)-c1csc(n1)C[C@H](NC1=NOC(C)(C3CC3)C1)C(=O)N1CCC[C@H](N1)C(=O)OCC(C)(C)C2` (atropisomer, axis not shown; (Ra)) [Compound Z281, (6^3S,4S,Z)-(Ra)-1^2-(5-(3-(1,4-oxazepan-4-yl)prop-1-yn-1-yl)-2-((S)-1-methoxyethyl)pyridin-3-yl)-1^1-ethyl-10,10-dimethyl-4-((5-cyclopropyl-5-methyl-4,5-dihydroisoxazol-3-yl)amino)-6^1,6^2,6^3,6^4,6^5,6^6-hexahydro-1^1H-8-oxa-2(4,2)-thiazola-1(5,3)-indola-6(1,3)-pyridazinacycloundecaphane-5,7-dione], the IC50 in the assay with NCI-H441 cells was 3 nM; in the assay on AsPC-1 cells it was 4.87 nM; in the assay on H441 p-ERK (Homo sapiens), 3.04 nM.

In turn, `COCCn1c(-c2cc(C#CCN3CCN(C(=O)CO)CC3)cnc2[C@H](C)OC)c2c3cc(ccc31)-c1csc(n1)C[C@H](NC(=O)[C@H]1[C@@H]3COC[C@@H]31)C(=O)N1CCC[C@H](N1)C(=O)OCC(C)(C)C2` (atropisomer, axis not shown) [Compound Z31, (1R,5S,6r)-N-((6^3S,4S,Z)-1^2-(5-(3-(4-(2-hydroxyacetyl)piperazin-1-yl)prop-1-yn-1-yl)-2-((S)-1-methoxyethyl)pyridin-3-yl)-1^1-(methoxyethyl)-10,10-dimethyl-5,7-dioxo-6^1,6^2,6^3,6^4,6^5,6^6-hexahydro-1^1H-8-oxa-2(4,2)-thiazola-1(5,3)-indola-6(1,3)-pyridazinacycloundecaphane-4-yl)-3-oxabicyclo[3.1.0]hexane-6-carboxamide] displayed an IC50 with H441 p-ERK (Homo sapiens) of 2.39 nM.

For the compound `CCn1c(-c2cc(C#CCN3CCCOCC3)cnc2[C@H](C)OC)c2c3cc(ccc31)-c1csc(n1)C[C@H](NC1=NOC(C)(C)C1)C(=O)N1CCC[C@H](N1)C(=O)OCC(C)(C)C2` (atropisomer, axis not shown; (Ra)) [Compound Z172-1, (6^3S,4S,Z)-(Ra)-1^2-(5-(3-(1,4-oxazepan-4-yl)prop-1-yn-1-yl)-2-((5)-1-methoxyethyl)pyridin-3-yl)-1^1-ethyl-10,10-dimethyl-4-((5,5-dimethyl-4,5-dihydroisoxazol-3-yl)amino)-6^1,6^2,6^3,6^4,6^5,6^6-hexahydro-1^1H-8-oxa-2(4,2)-thiazola-1(5,3)-indola-6(1,3)-pyridazinacycloundecaphane-5,7-dione], the IC50 with H441 p-ERK (Homo sapiens) worked out at 2.17 nM; with AsPC-1 p-ERK it was 5.8 nM.

For the compound `CCn1c(-c2cc(C#CCN3CCCOCC3)cnc2[C@H](C)OC)c2c3cc(ccc31)-c1csc(n1)C[C@H](NC1=NOC(C)(CC)C1)C(=O)N1CCC[C@H](N1)C(=O)OCC(C)(C)C2` (atropisomer, axis not shown) [Compound Z173, (6^3S,4S,Z)-1^2-(5-(3-(1,4-oxazepan-4-yl)prop-1-yn-1-yl)-2-((S)-1-methoxyethyl)pyridin-3-yl)-1^1-ethyl-10,10-dimethyl-4-((5-ethyl-5-methyl-4,5-dihydroisoxazol-3-yl)amino)-6^1,6^2,6^3,6^4,6^5,6^6-hexahydro-1^1H-8-oxa-2(4,2)-thiazola-1(5,3)-indola-6(1,3)-pyridazinacycloundecaphane-5,7-dione], the midpoint of inhibition with H441 p-ERK (Homo sapiens), the IC50, lay at 3.03 nM. Turning to `CCn1c(-c2cc(C#CCN3CCCOCC3)cnc2[C@H](C)OC)c2c3cc(ccc31)-c1csc(n1)C[C@H](NC1=NOC3(CCOCC3)C1)C(=O)N1CCC[C@H](N1)C(=O)OCC(C)(C)C2` (atropisomer, axis not shown) [Compound Z175, (6^3S,4S,Z)-1^2-(5-(3-(1,4-oxazepan-4-yl)prop-1-yn-1-yl)-2-((S)-1-methoxyethyl)pyridin-3-yl)-4-((1,8-dioxa-2-azaspiro[4.5]dec-2-en-3-yl)amino)-1^1-ethyl-10,10-dimethyl-6^1,6^2,6^3,6^4,6^5,6^6-hexahydro-1^1H-8-oxa-2(4,2)-thiazola-1(5,3)-indola-6(1,3)-pyridazinacycloundecaphane-5,7-dione], the IC50 came to 2.61 nM with H441 p-ERK (Homo sapiens) and 6.03 nM in the assay on AsPC-1 p-ERK.

For the compound `CCn1c(-c2cc(C#CCN3CCS(=O)(=O)CC3)cnc2[C@H](C)OC)c2c3cc(ccc31)-c1csc(n1)C[C@H](NC(=O)[C@@H](NC)C(C)C)C(=O)N1CCC[C@H](N1)C(=O)OCC(C)(C)C2` (atropisomer, axis not shown) [Compound Z4, (2S)-N-((6^3S,4S,Z)-1^2-(5-(3-(1,1-dioxidothiomorpholin-4-yl)prop-1-yn-1-yl)-2-((S)-1-methoxyethyl)pyridin-3-yl)-1^1-ethyl-10,10-dimethyl-5,7-dioxo-6^1,6^2,6^3,6^4,6^5, 6^6-hexahydro-1^1H-8-oxa-2(4,2)-thiazola-1(5,3)-indola-6(1,3)-pyridazinacycloundecaphane-4-yl)-3-methyl-2-(methylamino)butanamide], the IC50 in the assay with H441 p-ERK (Homo sapiens) was determined as 0.53 nM; in the assay on AsPC-1 p-ERK, 0.52 nM. Taken in the same sequence, the figures for `CCn1c(-c2cc(C#CCN3CCS(=O)(=O)CC3)cnc2[C@H](C)OC)c2c3cc(ccc31)-c1csc(n1)C[C@H](NC(=O)[C@@H](N)C1CCCC1)C(=O)N1CCC[C@H](N1)C(=O)OCC(C)(C)C2` (atropisomer, axis not shown; (Ra)) [Compound Z14, (2S)-2-amino-2-cyclopentyl-N-((6^3S,4S,Z)-(Ra)-1^2-(5-(3-(1,1-dioxidothiomorpholino)prop-1-yn-1-yl)-2-((S)-1-methoxyethyl)pyridin-3-yl)-1^1-ethyl-10,10-dimethyl-5,7-dioxo-6^1,6^2,6^3,6^4,6^5,6^6-hexahydro-1^1H-8-oxa-2(4,2)-thiazola-1(5,3)-indola-6(1,3)-pyridazinacycloundecaphane-4-yl)acetamide] were 0.41 nM and 0.45 nM.
